Laboratory results taken from article PMC7316994, “In Vitro Pharmacological Profile of a New Small Molecule Bradykinin B2 Receptor Antagonist” (Frontiers in Pharmacology, 2020).
Like-named read-outs stand apart in the source and are kept apart here. Peptide text beside a SMILES is read from it.

Experiments:
[1] = target: T1, endogenous human B2 receptor (Homo sapiens, UniProt P30411); assay: human isolated umbilical vein contractility assay, BK-induced contraction; conditions: for type of antagonism of BK: BK concentration-effect curves, Emax; for pA2 / Kb: Schild plot; for pA2 / Kb / Schild plot slope: Pharm/PCS, ± S.E.M. where given; for Kb: read-out: pA2 (converted); for Schild plot slope: Schild regression; for Maximal BK-induced response in absolute force units ± S.E.M.: vehicle: Icatibant 1.90, Compound 1 […]; for pA2 value converted into nM: potency from pA2
T1 construct: BK-induced contraction at endogenous human B2 receptor in the umbilical vein model; from tissue; host or cells: human umbilical vein rings (donor cords after elective caesarean section)
T1 sequence (P30411 1-391): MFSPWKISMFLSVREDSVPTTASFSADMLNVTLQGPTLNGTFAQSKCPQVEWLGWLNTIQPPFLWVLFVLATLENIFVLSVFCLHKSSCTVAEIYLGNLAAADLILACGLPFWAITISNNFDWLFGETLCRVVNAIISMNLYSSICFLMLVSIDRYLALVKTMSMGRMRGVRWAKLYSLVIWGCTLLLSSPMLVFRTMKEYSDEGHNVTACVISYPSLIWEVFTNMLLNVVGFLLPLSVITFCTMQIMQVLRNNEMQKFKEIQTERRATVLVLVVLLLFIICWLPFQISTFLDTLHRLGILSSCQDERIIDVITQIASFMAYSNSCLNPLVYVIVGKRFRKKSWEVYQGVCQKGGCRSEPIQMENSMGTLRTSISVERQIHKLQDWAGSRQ

5-HT2A receptor = target: T2, 5-HT2A receptor (Homo sapiens, UniProt P28223); assay: umbilical vein, serotonin-induced contraction; conditions: Compound 2 10 μM; Compound 3 1 μM
T2 construct: other endogenously expressed receptors in the human umbilical vein; from tissue; host or cells: human umbilical vein rings
Text: (§1) The local ethics committee (CHU de Québec-Université Laval) had approved the project (File no. 2017-3720). Umbilical cords were obtained following elective caesarean sections; all problematic deliveries are excluded. Informed consent was obtained from the mothers. The cords were transported from the maternity ward to the laboratory in sterile Hank's balanced salt solution containing penicillin and streptomycin. Segments of umbilical veins were dissected carefully from the cords and a metal rod was inserted in the lumen. Excess connective tissue was excised and rings (2–3 mm wide) were cut. Rings of umbilical veins were suspended in 5-mL organ chambers containing oxygenated (95% O2, 5% CO2) and warmed (37°C) Krebs' solution between a metal hook and a thread loop. This solution had the following composition: NaCl 117.5 mM, KCl 4.7 mM, KH2PO4 1.2 mM, MgSO4 1.18 mM, CaCI2 2.5 mM, NaHCO3 25.0 mM, and D-glucose 5.5 mM. A baseline of one gram-weight was applied to these preparations. Changes of tension were recorded by using isometric transducers (model 52-9545, Harvard Bioscience, South Natick MA). Eight tissue baths are operated in parallel.
(§2) For this purpose, contractile responses to serotonin, acting on the 5-HT2A receptor, and U-46619, acting at the prostanoid TP receptor, were measured ([Rogines-Velo et al., 2002]; [Daray et al., 2003]).

prostanoid TP receptor = target: T3, prostanoid TP receptor (Homo sapiens, UniProt P21731); assay: umbilical vein, U-46619-induced contraction; conditions: Compound 2 10 μM; Compound 3 1 μM
T3 construct: endogenous human prostanoid TP receptors in the umbilical vein model; from tissue; host or cells: human umbilical vein rings
Text: as §1, §2

human myc-B2 receptor = target: T4, human myc-B2 receptor (Homo sapiens, UniProt P30411); assay: c-Fos immunoblot, HEK 293a cells stably expressing myc-B2 receptor; type: cell-based; conditions: BK 10 nM
T4 construct: expressed in transfected cells
T4 sequence (P30411 1-391): T1 sequence (P30411 1-391)
Text: Supplementary Methods: Immunoblots for c-Fos signaling
The construction of myc-tagged B2 receptor expression vector containing the human receptor sequence has been recently reported, as well as the derivation of HEK293a cell lines that stably express the construction (Charest-Morin et al., 2015). Immunoblotting experiments, conducted as described (Koumbadinga et al., 2010), were used to study the effect of selected antagonists on BK-induced signaling. Briefly, HEK 293a cells stably expressing the human myc-B2 receptor were stimulated with BK agonists for 60 min at 37°C, with or without a pretreatment with the antagonist (applied 15 min before BK). Total cell extracts were immunoblotted to detect c-Fos expression using the K-25 rabbit polyclonal antibodies (Santa Cruz Biotechnology, Dallas, TX; dilution 1:50,000). In these experiments, β-actin was used as a loading control and was detected using the monoclonal anti-β-actin antibody, clone AC-15 (Sigma-Aldrich; dilution 1:50,000).

[2] = target: T5, myc-tagged human B2 receptor (Homo sapiens, UniProt P30411); assay: antibody internalization assay, HEK 293a cells; type: cell-based; conditions: BK 100 nM; antagonist 1 nM to 1 μM, 15 min before BK
T5 construct: expressed in transfected cells
Procedure: B2 receptor-mediated transport of immune complexes constructed at the cell surface was previously reported ([Bawolak et al., 2011]). Intact HEK 293a cells stably expressing the N-terminally myc-tagged B2 receptor construction (human sequence, [Charest-Morin et al., 2015]) were treated with the monoclonal anti-myc antibody (clone 4A6) conjugated with AlexaFluor-488 (Millipore, dilution 1:500) added to the culture medium. Cells were further incubated at 37°C. Without rinsing, a selected antagonist or their DMSO vehicle was added 5 min later, and BK (100 nM) or its saline vehicle 15 min later. After an additional 30 min incubation period at 37°C, cells were rinsed 3 times with Hank's balanced salt solution (Multicell Wisent, St. Bruno, Canada) and photographed in transmission and epifluorescence using an Olympus BX51 microscope coupled to a CoolSnap HQ digital camera (filters for AlexaFluor 488: excitation 460–500 nm, emission 510–560 nm).

microsomal stability = conditions: for microsomal CLint at 1 µM: male, Wistar, rat, liver microsomes, pH 7.4
B2 receptor [3] = target: T6, B2 receptor (Homo sapiens, UniProt P30411); assay: [^3H]BK competition binding assay, CHO cell membranes; set-up: host or cells: CHO cells; conditions: for IC50 / Ki: competition with 0.3 nM [^3H]BK; for fold lower affinity compared to Compound 3 and icatibant: radioligand binding
T6 sequence (P30411 1-391): T1 sequence (P30411 1-391)

B2 receptor [4] = target: T6, B2 receptor; assay: Ca^2+ mobilization assay, transfected CHO cells; type: cell-based; set-up: host or cells: CHO cells; conditions: for IC50 / Kb: inhibition of response to 0.03 nM BK
[5] = Caco-2 permeation assay (bidirectional); conditions: human
[6] = target: T7, cynomolgus monkey B2 receptor (Macaca fascicularis, UniProt A0A7N9CWN6); conditions: mean ± S.D.
T7 sequence (A0A7N9CWN6 1-391): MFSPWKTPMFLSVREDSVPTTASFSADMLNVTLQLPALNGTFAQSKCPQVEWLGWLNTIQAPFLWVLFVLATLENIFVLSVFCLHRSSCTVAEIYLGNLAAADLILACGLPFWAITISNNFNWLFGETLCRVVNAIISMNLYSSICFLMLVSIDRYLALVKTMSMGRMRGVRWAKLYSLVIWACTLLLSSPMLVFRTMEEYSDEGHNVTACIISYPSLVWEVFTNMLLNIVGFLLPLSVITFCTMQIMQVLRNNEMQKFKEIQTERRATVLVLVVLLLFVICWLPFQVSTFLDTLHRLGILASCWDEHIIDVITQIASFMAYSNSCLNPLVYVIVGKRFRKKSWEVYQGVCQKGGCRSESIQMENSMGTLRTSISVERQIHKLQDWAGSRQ

[7] = target: T7, cynomolgus monkey B2 receptor; assay: cell-based
[8] = antagonist 10 nM, Compound 2 2.25, Compound 3 1.52
[9] = antagonist 100 nM, Compound 2 2.25, Compound 3 1.52
[10] = antagonist 1 μM, Compound 2 2.25, Compound 3 1.52
[11] = antagonist 10 μM, Compound 2 2.25
[12] = arithmetic mean, read-out: IC50 (nM) Mean
[13] = arithmetic mean, read-out: Ki (nM) Mean
[14] = geometric mean, read-out: IC50 (nM) Geometric mean
[15] = geometric mean, read-out: Ki (nM) Geometric mean
[16] = arithmetic mean, read-out: Kb (nM) Mean
[17] = geometric mean, read-out: Kb (nM) Geometric mean

T3 sequence (P21731 whole entry): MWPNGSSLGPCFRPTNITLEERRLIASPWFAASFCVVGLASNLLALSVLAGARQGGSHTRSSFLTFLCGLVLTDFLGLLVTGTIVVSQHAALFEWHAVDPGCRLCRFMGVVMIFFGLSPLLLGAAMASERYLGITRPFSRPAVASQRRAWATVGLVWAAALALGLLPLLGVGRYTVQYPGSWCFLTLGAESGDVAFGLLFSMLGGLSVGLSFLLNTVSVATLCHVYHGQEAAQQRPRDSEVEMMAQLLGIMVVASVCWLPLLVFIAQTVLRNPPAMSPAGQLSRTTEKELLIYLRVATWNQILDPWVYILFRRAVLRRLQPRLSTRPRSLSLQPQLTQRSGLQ
T2 sequence (P28223 whole entry): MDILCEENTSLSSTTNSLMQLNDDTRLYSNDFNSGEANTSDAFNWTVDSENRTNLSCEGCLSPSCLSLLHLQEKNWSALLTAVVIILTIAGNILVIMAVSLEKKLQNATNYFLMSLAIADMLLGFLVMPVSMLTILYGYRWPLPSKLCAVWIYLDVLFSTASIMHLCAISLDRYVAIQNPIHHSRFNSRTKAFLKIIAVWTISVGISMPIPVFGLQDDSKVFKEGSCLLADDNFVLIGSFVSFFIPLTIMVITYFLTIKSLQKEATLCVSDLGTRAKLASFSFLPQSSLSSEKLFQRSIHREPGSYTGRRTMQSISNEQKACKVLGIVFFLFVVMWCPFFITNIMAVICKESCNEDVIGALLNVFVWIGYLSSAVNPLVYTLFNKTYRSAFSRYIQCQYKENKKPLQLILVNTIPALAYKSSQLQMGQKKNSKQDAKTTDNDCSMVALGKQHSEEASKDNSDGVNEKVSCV

SMILES | type of antagonism of BK [1] | pA2 [1] | Kb [1] | Schild plot slope [1] | Maximal BK-induced response in absolute force units ± S.E.M. [1, 8] | Maximal BK-induced response in absolute force units ± S.E.M. [1, 9] | Maximal BK-induced response in absolute force units ± S.E.M. [1, 10] | Maximal BK-induced response in absolute force units ± S.E.M. [1, 11] | pA2 value converted into nM [1] | microsomal CLint at 1 µM (microsomal stability) | IC50 (B2 receptor [3]; [12]) | Ki (B2 receptor [3]; [13]) | IC50 (B2 receptor [3]; [14]) | Ki (B2 receptor [3]; [15]) | fold lower affinity compared to Compound 3 and icatibant (B2 receptor [3]) | IC50 (B2 receptor [4]; [12]) | Kb (B2 receptor [4]; [16]) | IC50 (B2 receptor [4]; [14]) | Kb (B2 receptor [4]; [17]) | Papp A→B at 60 min, 10 µM [5] | also measured
Cc1cc(-c2ncnn2C)c2cccc(OCc3c(Cl)cncc3C(C)NC(=O)COC(F)F)c2n1 (racemic) [Compound 2, rac-N-(1-(5-chloro-4-((2-methyl-4-(1-methyl-1H-1,2,4-triazol-5-yl)quinolin-8-yloxy)methyl)pyridin-3-yl)ethyl)-2-(difluoromethoxy)acetamide] | competitive | 9.02 ± 0.31 | 0.955 nM | −0.65 | 2.07 ± 0.30 grams-weight | 2.26 ± 0.42 grams-weight | 2.00 ± 0.32 grams-weight | 1.82 ± 0.18 grams-weight | 0.95 nM | 497 µL/min/mg | 7.6 nM | 3.9 nM | 7.6 nM | 3.9 nM | about 7 fold | 9.57 nM | 1.08 nM | 8.3 nM | 0.95 nM | 3.9 ×10⁻⁶ cm/s | effect on serotonin-induced contraction (5-HT2A receptor): failed to modify; effect on U-46619-induced contraction (prostanoid TP receptor): failed to modify; antagonist concentration that significantly reduced the c-Fos response to BK (human myc-B2 receptor; 60 min): 100 nM; effect on BK-induced c-Fos accumulation (human myc-B2 receptor; co-treatment between 10 nM and 1 μM): inhibited this response in a concentration-dependent manner; concentration with clear efficacy in inhibiting BK-induced endocytosis [2]: ≥ 100 nM; fold lower intrinsic clearance compared with Compound 3 (so in the source) (microsomal stability; rat microsomal stability assay): 18 fold; fold lower potency compared with Compound 3 (B2 receptor [4]; B2 receptor): 4.0 fold; Papp B→A at 60 min, 10 µM [5]: 29.9 ×10⁻⁶ cm/s; efflux ratio at 60 min, 10 µM [5]: 7.7
N=C(N)NCCC[C@H](NC(=O)[C@H](Cc1ccccc1)NC(=O)[C@@H]1CCCN1C(=O)[C@H](CO)NC(=O)[C@H](Cc1ccccc1)NC(=O)CNC(=O)[C@@H]1CCCN1C(=O)[C@@H]1CCCN1C(=O)[C@@H](N)CCCNC(=N)N)C(=O)O [BK] (H-RPPGFSPFR-OH) |  |  |  |  |  |  |  |  |  |  |  |  |  |  |  |  |  |  |  |  | average agonist EC80, Ca^2+ mobilization [6]: 0.539 ± 0.16 nM
NC(N)=NCCC[C@H](NC(=O)[C@H](Cc1ccccc1)NC(=O)[C@@H]1CCCN1C(=O)[C@H](CO)NC(=O)[C@H](Cc1ccccc1)NC(=O)CNC(=O)[C@@H]1CCCN1C(=O)[C@@H]1CCCN1C(=O)[C@@H](N)CCCN=C(N)N)C(=O)O [BK] (H-RPPGFSPFR-OH) |  |  |  |  |  |  |  |  |  |  |  |  |  |  |  |  |  |  |  |  | EC50 [7]: 0.155 ± 0.043 nM
Cc1cc(-c2ncnn2C)c2cccc(OCc3c(Cl)cncc3CNC(=O)C3CCCCC3)c2n1 [Compound 1, N-((5-chloro-4-((2-methyl-4-(1-methyl-1H-1,2,4-triazol-5-yl)quinolin-8-yloxy)methyl)pyridin-3-yl)methyl)cyclohexanecarboxamide] | competitive | 8.58 ± 0.26 | 2.63 nM | −0.62 | 1.48 ± 0.24 grams-weight | 2.08 ± 0.28 grams-weight | 1.46 ± 0.20 grams-weight | 1.67 ± 0.28 grams-weight | 2.63 nM | 960 µL/min/mg | 7.4 nM | 3.8 nM | 7.4 nM | 3.8 nM | about 7 fold | 11.3 nM | 1.3 nM | 11 nM | 1.24 nM | 5.5 ×10⁻⁶ cm/s | Papp B→A at 60 min, 10 µM [5]: 20.9 ×10⁻⁶ cm/s; efflux ratio at 60 min, 10 µM [5]: 5.5
